Data set [1] can be described thus: Tolerability in mice after intraperitoneal injection. The data set is classed as in vivo. To be noted: 10 mg/Kg intraperitoneal injection, 20 % HP-β CD. How it is done:
(§1) Male CD-1 mice were obtained from Vernon Jansen Unit (University of Auckland) and housed in cages with a 12-hour light/dark cycle and received sterilized food and water ad libitum. Studies and procedures were conducted with prior approval of the Ethics Committee of the University of Auckland (AEC approval number 1190). Derivative 3 was prepared in 20 % HP-β CD as a fine yellow suspension, and administered (at 10 mg/Kg) as intraperitoneal bolus injection. Blood samples were collected via a terminal cardiac bleeding (n = 3 mice/time) at 0.167, 0.5, 1, 2 and 6 h post dose. Blood was collected in ice cold K2-EDTA tubes and kept on ice. All samples were centrifuged at 6500 rpm for 5 min at room temperature, obtained plasma were stored at −80 °C until analysed by LC–MS/MS.
Derivative 3 was chosen for a small pharmacokinetic study.

For data set [2], the system named is MDA-MB-231. Kind of data set: Combination growth inhibition with cytotoxic drugs (Bliss model). The data set is classed as cell-based, human. Here is the method:
(§2) As described in detail previously, cell proliferation was measured using a thymidine incorporation assay by seeding 3000 cells in each well using 96 well plates with varying concentrations of inhibitors for 3 days. Experiments were performed in triplicate with a minimum of two experimental repeats. Briefly, ^3H-thymidine (0.04 µCi) was added to each well and incubated for 5 h, after which the cells were gathered onto glass fibre filters using an automated TomTec harvester. Filters were incubated with Betaplate Scint and thymidine incorporation determined with Trilux/Betaplate counter showing the percentage of cells incorporated with ^3H-thymidine into the DNA helix.
(§3) As described previously for everolimus and other inhibitors, we employed the Bliss additivism model to classify the drug combinations as additive, synergistic or antagonistic. A theoretical curve was calculated for combined inhibition using the equation Ebliss = (EA + EB) − (EA × EB), where EA and EB are the fractional inhibitions obtained by drug A alone and drug B alone at specific concentrations. Ebliss is the fractional inhibition that would be expected if the effects of the two drugs were additive. The difference (Bliss) in the experimentally measured fractional inhibition (Expt) and Ebliss are defined as synergism […], additive (Expt = Ebliss), and antagonism […]. Bliss = 0 would indicate the combination is additive; Bliss > 0 would indicate the percentage increase in maximal inhibition above additivity (synergy); and Bliss < 0 would indicate the percentage decrease in maximal inhibition below additivity (antagonism). The data were analysed using a one-way ANOVA coupled with multiple comparisons versus treatment control applying the Holm-Sidak method correction, where p < 0.05 denotes a statistically significant difference.

A further data set has as its system HCT116. Described as above. The data set is classed as cell-based, human. To be noted: HCT116, derivative 3 50 nM plus paclitaxel. How it is done: as §2, §3
The subject of data set [3] is MDA-MB-231 breast cancer cells. Kind of data set: Microtubule imaging (anti-tubulin and Hoechst staining). The data set is classed as cell-based, human. Particulars: MDA-MB-231, 16 h; for Microtubule arrangement: FITC anti-tubulin staining. How it is done: Cells were grown on a glass slide with and without inhibitors, fixed by 4 % paraformaldehyde, permeabilised by 0.5 % Triton X-PBS and incubated with 5 % BSA/PBS containing FITC-labelled anti-tubulin antibody. Microtubule arrangement was monitored by fluorescence staining of microtubules using anti-tubulin and analysed by fluorescent microscopy using Floid imaging station (460× magnification). Nucleus was stained with 2 μg/ml Hoechst stain (Life Technology) for 10 min at room temperature. Hoechst stain emits blue fluorescence when bound to double strand DNA.

Data set [4] concerns MDA-MB-231 breast cancer cells. Kind of data set: DNA damage by γH2AX (flow cytometry, immunoblot). The data set is classed as cell-based, human. Particulars: MDA-MB-231, 1 μM, 24 h; for Proportion of cells with high γ-H2AX phosphorylation: basal level 1 %. Here is the method:
(§4) As described in detail previously, cells (10^6 cells per well) were grown in 6 well plates and incubated with inhibitors for the indicated time. Cells were harvested, washed and resuspended in 1 ml of blocking buffer (1 % FCS/PBS), and incubated with antibody to γ-H2AX (phosphorylated Ser139) (Millipore, USA) in blocking buffer (1:500 dilution) at room temperature for 2 h. Cells were washed, incubated with goat anti-mouse Alex 488 Fab fragment secondary antibody (Invitrogen, New Zealand) (1:400 in blocking buffer for 1 h, at room temperature; dark), washed and resuspended in 1 ml of blocking buffer containing RNase (1 μg/ml) and propidium iodide (PI) (10 μg/ml) for 30 min at room temperature. Cells were analysed in a Becton–Dickinson LSRII and profiles were analysed with ModFit LT 3 software.
As described in detail previously cells were grown to log-phase, washed twice with ice-cold PBS, and lysed in SDS lysis buffer according to the manufacturer’s protocol (Cell Signalling Technology, Danvers, MA, USA). Protein concentration was quantified using the BCA protein assay reagent bicinchoninic acid (Sigma, New Zealand). Cell lysates containing 25 μg of protein were separated by SDS-PAGE and transferred to PVDF membranes (Millipore). Membranes were immunoblotted with antibodies against to γ-H2AX (phosphorylated Ser139) (Millipore, USA), and actin (Millipore), using SuperSignalWest Pico (Thermo Scientific, Waltham,MA, USA) chemiluminescence reagents. Antibody reactivity was visualized using the chemiluminescence detection system by Fujifilm Las-3000.
On the technique in general: Flow cytometry measures light scatter and fluorescence of single cells or particles in a stream.

The subject of a further data set is MDA-MB-468. Kind of data set: Cell proliferation assay (3H-thymidine incorporation, 3 days). Particulars: Homo sapiens, 72 h; MDA-MB-468, thymidine incorporation, 3 days treatment; read-out: IC50 (50 % inhibition of growth). The data set is classed as cell-based. How it is done: (§5) Culture conditions have been described in detail previously; human breast cancer cell lines MCF-7, T47D, MDA-MB-468, MDA-MB-231, human epithelial carcinoma cell line A431 and human colon cancer cell line HCT116 were purchased from the American Type Culture Collection (ATCC). Cells were grown in α-MEM containing 5 % fetal calf serum, insulin/transferrin/selenium supplement, added according to the manufacturer’s instructions (Roche), as well as penicillin/streptomycin (100 U/ml and 100 μg/ml, respectively).
as §2
For orientation: Dividing cells build labelled thymidine or BrdU into new DNA.

Data set [5] deals with MDA-MB-231. The data set is described as above. The data set is classed as cell-based. To be noted: Homo sapiens, 72 h; MDA-MB-231, thymidine incorporation, 3 days treatment; read-out: IC50 (50 % inhibition of growth). How it is done:
as §5, §2

The subject of another data set is MCF7. The description is as above. Particulars: Homo sapiens, 72 h, 3 days treatment, read-out: IC50 (50 % inhibition of growth). The data set is classed as cell-based. Here is the method:
as §5, §2

The nature of a further data set: Aqueous solubility. The data set is classed as physicochemical.
In another data set the test system is A431 cells. Kind of data set: Calcium flux assay (EGF-induced, Fluo-4). Particulars: pre-treatment at 25 and 50 μM, EGF 400 ng/ml. The data set is classed as cell-based, human. Here is the method: A431 cells were plated onto 96 wells until confluent. Cells were loaded with 5 µM Fluo-4 acetoxymethyl ester with 0.003 % pluronic acid and 2.5 mM Probenecid (Molecular Probes) for 30 min at 37 °C, then washed with buffer and incubated for another 30 min. Epidermal growth factor (EGF) (400 ng/ml) was used as an activator. EGF alone or with derivative 3 were added to A431 cells to determine the inhibitory activity on calcium flux of derivative 3, and compared with buffer (negative control) and 1 µg/ml ionomycin (positive control). Fluorescence signal was recorded from the bottom of the plate at 1 s intervals (3 wells per/s) using an EnSpire 2300 Multimode Plate Reader (Perkin-Elmer) at excitation wavelength of 494 nm and emission wavelength of 506 nm (25 °C, 3 mm measurement height, 50 flashes). Baseline fluorescence was recorded for 10 s, after which buffer alone, EGF alone or with drug, was added and fluorescence was captured for a further 45 s. Next, ionomycin was added and fluorescence was recorded for another 45 s. Three independent experiments were performed.
In general terms: Calcium assays in cells follow changes in intracellular calcium, usually with a dye or a luminescent sensor.

The nature of data set [6]: Mouse plasma pharmacokinetics. The data set is classed as in vivo. Particulars: ip, male CD-1 mice, 10 mg/Kg intraperitoneal. How it is done: as §1
Briefly, plasma samples were assayed for derivative 3 using liquid chromatography-tandem mass spectrometry (LC–MS/MS) method. Briefly, derivative 3 was spiked in the drug mouse plasma to obtain a concentration 0.003, 0.03, 0.3, 3, 10 and 30 µM to construct a calibration curve. Derivative 1 (a structural analogue of 3) was used as an internal standard in LC–MS/MS assay at a concentration of 0.5 μM added to acetonitrile. Drug was extracted from plasma using direct protein precipitation with ice cold acetonitrile (1:4 v/v) and quantified by peak area ratio of 3 versus 1 using a calibration curve prepared with derivative 3 as outlined above. LC–MS/MS used was Agilent 6410b with multimode ion source operated in atmospheric pressure chemical ionization (APCI) positive mode attached to an Agilent 1200 series HPLC system. LC–MS/MS used an Agilent Zorbax SB-C18 column (2.1 × 50 mm, 5 µM, USA) operated at 35 °C, at a flow rate 0.5 mL/min with a gradient consisting of 0.01 % formic acid in MilliQ water (Millipore, USA) and 0.01 % formic acid in 80 % acetonitrile-20 % MilliQ water. The MS1 and MS2 were operated at unit resolution in the multiple reaction monitoring (MRM) mode, monitoring the transition of the protonated molecular ions at m/z 368 to the product ions at m/z 245 for derivative 3 and monitoring the transition of the protonated molecular ions at m/z 372 to the product ions at m/z 245 for derivative 1 (internal standard). […] The lower limit of quantification for derivative 3 in plasma was 0.003 μM.
Mean mouse plasma-time data for derivative 3 was analysed with non-compartmental method using Phoenix WinNonlin 6.2 (Pharsight Corporation, Mountain View, CA) as shown in Table 1.

Data set [7] concerns MDA-MB-231 breast cancer cells. Kind of data set: Cell cycle distribution by flow cytometry. The data set is classed as cell-based, human. To be noted: MDA-MB-231, 1 μM, 24 h. How it is done:
as §4

The next data set deals with breast cancer cells. Also on record: method as in doi:10.1039/C3MD00290J. Particulars: earlier flow cytometry; cited from earlier work.
A further data set deals with T47D. Kind of data set: Cell proliferation assay (3H-thymidine incorporation, 3 days). The data set is classed as cell-based, human. Particulars: 3 days treatment. How it is done: as §5, §2

The structures appear in SMILES notation. A value given as a limit tells only on which side of the number the result lay.

As usually defined, the IC50 is the concentration that inhibits the measured activity by half. As a reminder, the AUC(0-inf) is the area under the concentration-time curve extrapolated to infinity. Take `COc1cccc(NC(=O)c2sc3nc4c(cc3c2N)C(=O)CCC4)c1` [derivative 3]: in data set [1], the Tolerability result is recorded as “well tolerated with no acute reaction observed”. Also, in the data set on MDA-MB-231 [2] (MDA-MB-231, derivative 3 50 nM plus camptothecin), the “Drug interaction with camptothecin (Bliss)” value was “only additive effects”. For the same compound, the “Drug interaction with doxorubicin (Bliss)” value in the data set on MDA-MB-231 [2] (MDA-MB-231, derivative 3 50 nM plus doxorubicin) is on record as “only additive effects”. The “Drug interaction with paclitaxel (Bliss)” value in the data set with MDA-MB-231 [2] (MDA-MB-231, derivative 3 50 nM plus paclitaxel) is listed as “synergistic effect”; with HCT116, “Synergism”. The Cell morphology entry in data set [3] is listed as “membrane blebbing”. In addition, in data set [3], the Microtubule arrangement result is “No microtubule bundles were observed”. Moreover, the Nuclear phenotype result in [3] (Hoechst staining) is “abnormal nuclear phenotype and possessed multinuclear cells”. Besides, the “DNA damage (γH2AX)” value in data set [4] was “did not initiate DNA damage”. Further, the “Proportion of cells with high γ-H2AX phosphorylation” value in data set [4] was determined as 4%. The IC50 with MDA-MB-468, with MDA-MB-231 [5] and in the data set on MCF7 was less than 0.1 µM each time. Further, the Aqueous solubility result in the data set “Aqueous solubility” is “poor”. The “Effect on increase in intracellular calcium levels induced by EGF” value in the data set with A431 cells was “no effect”. Besides, the half-life in data set [6] (male, CD-1, mouse, 10 mg/kg, read-out: t1/2 (elimination half-life)) is greater than 240 min. In addition, the k el in [6] (mouse, 20 % HP-β CD suspension, read-out: Ke (elimination rate constant) (converted)) is 4.72e-06 s⁻¹. In addition, in data set [6] (mouse, extrapolated to infinity), the AUC(0-inf) is 0.19 µM·h. Also, in data set [6] (mouse, post injection, read-out: Time of maximal plasma concentration (converted)), the Tmax is 30 min. Also, the Cmax in data set [6] (mouse, read-out: Cmax (maximum concentration in plasma)) was 87 nM. In addition, the AUC(0-t) in data set [6] (mouse, up to 6 h, read-out: AUC0–6 h) is 0.13 µM·h. Besides, in [7], the Cell cycle effect entry is on record as “induce G2/M phase cell cycle arrest”.
Turning to `Nc1c(C(=O)Nc2cccc(Cl)c2)sc2nc3c(cc12)C(=O)CCC3` [derivative 1], in the data set with breast cancer cells, the Cell cycle effect result is recorded as “caused G2/M arrest”.
Consider `CC(=O)O[C@H]1C(=O)[C@@]2(C)[C@H]([C@H](OC(=O)c3ccccc3)[C@]3(O)C[C@H](OC(=O)[C@H](O)[C@@H](NC(=O)c4ccccc4)c4ccccc4)C(C)=C1C3(C)C)[C@]1(OC(C)=O)CO[C@@H]1C[C@@H]2O` [paclitaxel, reference compound], for which, in data set [3], the Microtubule arrangement result was “shortened and bundling of microtubules”.
As to `Nc1c(C(=O)Nc2cccc3ccccc23)sc2nc3c(cc12)C(=O)CCC3` [derivative 5], the “IC50 (50 % inhibition of growth)” value with T47D is recorded as “not reached”.
Take `CC[C@@]1(O)C(=O)OCc2c1cc1n(c2=O)Cc2cc3ccccc3nc2-1` [camptothecin, reference compound]: the “Proportion of cells with high γ-H2AX phosphorylation” value in [4] turned out to be 69%.
